Results taken from paper PMC6534341, “α-Synuclein–Confocal Nanoscanning (ASYN-CONA), a Bead-Based Assay for Detecting Early-Stage α-Synuclein Aggregation” (Analytical Chemistry, 2019).
Like-named read-outs stand apart in the source and are kept apart here.

Molecular target: T1, α-synuclein (Homo sapiens, UniProt P37840, A91C)
T1 construct: gene SNCA
Test: ASYN-CONA on-bead aggregation assay (confocal bead ring intensity, […] EtOH, […] h)
Format: biochemical

IC50 [µM]	IC50 (read-out: IC50) [µM]	SMILES
4.32 ± 0.6	–	O=c1cc(-c2ccccc2)oc2cc(O)c(O)c(O)c12 [baicalein]
–	2.76 ± 0.89	COc1cc(/C=C/C(=O)CC(=O)/C=C/c2ccc(O)c(OC)c2)ccc1O [curcumin]
–	502 ± 360	CO[C@H]1/C=C/O[C@@]2(C)Oc3c(C)c(O)c4c(O)c(c(/C=N/N5CCN(C)CC5)c(O)c4c3C2=O)NC(=O)/C(C)=C\C=C\[C@H](C)[C@H](O)[C@@H](C)[C@@H](O)[C@@H](C)[C@H](OC(C)=O)[C@@H]1C [rifampicin]
